Experiments:
[1] = biological target: GABA-A receptor; agonist GABA site (Homo sapiens) (UniProt P14867+P47870+P28472+P48169+P34903+P18505+P47869+P31644+Q16445); test: Inhibition of agonist site of GABAA receptor at 10 uM; type: functional
[2] = biological target: 5-hydroxytryptamine receptor 5A (Homo sapiens, UniProt P47898); test: Inhibitory activity against 5HT5A receptor
[3] = biological target: Alpha-2B adrenergic receptor (Homo sapiens, UniProt P18089); test: Activity at adrenergic alpha-2B receptor expressed in opposum kidney OK cell by adenylyl cyclase assay; type: functional, cell-based
[4] = biological target: T1, Glutamate receptor ionotropic AMPA (Homo sapiens) (UniProt P48058+P42263+P42262+P42261); test: Inhibition of AMPA receptor at 1 nM; type: protein-complex assay
[5] = biological target: Estrogen receptor (Homo sapiens) (UniProt Q92731+P03372); test: Inhibition of estrogen receptor at 100 nM; type: protein assay
[6] = biological target: Adrenergic receptor beta (Homo sapiens) (UniProt P08588+P07550+P13945); test: Inhibition of non selective binding to adrenergic beta receptor at 1 nM; type: protein assay
[7] = biological target: Dopamine receptor (Homo sapiens) (UniProt P14416+P35462+P21918+P21917+P21728); test: Inhibition of non selective binding to dopamine receptor at 100 nM; type: protein assay
[8] = biological target: L-type calcium channel, dihydropyridine site (Homo sapiens, UniProt O60840+Q01668+Q13698+Q13936); test: Inhibitory activity at dihydropyridine site of Calcium channel L type at 1 nM; type: protein assay
[9] = biological target: T2, Alpha-2A adrenergic receptor (Homo sapiens, UniProt P08913); test: Displacement of [3H]clonidine from cloned human adrenergic alpha2A receptor expressed in Sf9 cells
T2 sequence (P08913 whole entry): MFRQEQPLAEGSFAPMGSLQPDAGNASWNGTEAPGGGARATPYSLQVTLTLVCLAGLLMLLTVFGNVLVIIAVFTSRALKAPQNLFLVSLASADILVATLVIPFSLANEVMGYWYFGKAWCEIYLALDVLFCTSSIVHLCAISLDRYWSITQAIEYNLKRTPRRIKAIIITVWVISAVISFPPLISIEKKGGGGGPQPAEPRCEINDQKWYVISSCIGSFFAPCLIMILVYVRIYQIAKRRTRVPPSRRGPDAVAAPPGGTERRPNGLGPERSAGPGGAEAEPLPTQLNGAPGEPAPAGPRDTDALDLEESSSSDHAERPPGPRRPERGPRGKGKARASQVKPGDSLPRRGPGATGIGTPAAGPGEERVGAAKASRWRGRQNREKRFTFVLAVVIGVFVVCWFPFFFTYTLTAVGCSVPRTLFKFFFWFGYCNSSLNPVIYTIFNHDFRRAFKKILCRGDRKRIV

[10] = biological target: T3, Alpha-2C adrenergic receptor (Homo sapiens, UniProt P18825); test: Displacement of [3H]clonidine from cloned human adrenergic Alpha-2C receptor expressed in Sf9 cells
T3 sequence (P18825 whole entry): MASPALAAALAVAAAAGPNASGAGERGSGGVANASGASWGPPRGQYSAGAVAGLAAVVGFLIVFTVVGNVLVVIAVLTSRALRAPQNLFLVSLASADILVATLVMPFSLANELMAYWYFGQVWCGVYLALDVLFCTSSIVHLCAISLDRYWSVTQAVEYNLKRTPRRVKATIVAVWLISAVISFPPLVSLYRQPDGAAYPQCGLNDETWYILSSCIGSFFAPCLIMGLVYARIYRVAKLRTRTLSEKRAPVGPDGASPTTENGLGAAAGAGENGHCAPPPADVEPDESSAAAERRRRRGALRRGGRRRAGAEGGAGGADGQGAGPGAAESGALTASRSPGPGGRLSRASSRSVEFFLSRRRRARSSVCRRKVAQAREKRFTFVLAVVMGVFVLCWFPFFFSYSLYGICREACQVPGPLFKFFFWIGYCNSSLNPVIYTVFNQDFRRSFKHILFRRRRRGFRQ

[11] = biological target: Protein kinase C, PKC; classical/novel (Homo sapiens) (UniProt O94806+P17252+P05129+Q05655+P05771+Q02156+P24723+Q15139+Q04759); test: Inhibition of PDBu activated protein kinase C at 10 uM; type: protein assay
[12] = biological target: T4, monoamine oxidase B (MAO-B) (Rattus norvegicus, UniProt P19643); test: Inhibition of monoamine oxidase B in rat brain at 10 uM; type: tissue-based
T4 sequence (P19643 whole entry): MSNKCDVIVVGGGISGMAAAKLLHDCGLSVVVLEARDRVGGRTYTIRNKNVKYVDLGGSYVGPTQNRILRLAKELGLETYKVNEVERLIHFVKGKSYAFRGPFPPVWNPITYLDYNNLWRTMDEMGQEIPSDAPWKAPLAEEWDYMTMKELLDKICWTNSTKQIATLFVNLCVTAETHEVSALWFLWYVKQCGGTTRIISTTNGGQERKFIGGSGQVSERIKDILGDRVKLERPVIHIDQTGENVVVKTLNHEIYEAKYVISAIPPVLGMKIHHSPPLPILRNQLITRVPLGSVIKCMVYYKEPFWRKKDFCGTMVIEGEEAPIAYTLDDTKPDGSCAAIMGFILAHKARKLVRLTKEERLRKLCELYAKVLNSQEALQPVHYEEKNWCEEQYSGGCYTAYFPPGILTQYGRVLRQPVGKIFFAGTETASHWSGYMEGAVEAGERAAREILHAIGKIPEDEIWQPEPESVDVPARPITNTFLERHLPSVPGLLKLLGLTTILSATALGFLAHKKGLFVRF

[13] = Inhibition of P2Y purinergic receptor at 10 uM
[14] = biological target: Substance-P receptor (Homo sapiens) (UniProt P25103); test: Inhibition of neurokinin 1 receptor at 10 uM
[15] = biological target: Alpha-1B adrenergic receptor (Homo sapiens, UniProt P35368); test: Inhibitory activity against adrenergic alpha-1B receptor
[16] = biological target: T5, Type-1 angiotensin II receptor (Homo sapiens) (UniProt P30556); test: Inhibition of type 1 angiotensin 2 receptor at 10 uM
T5 sequence (whole entry): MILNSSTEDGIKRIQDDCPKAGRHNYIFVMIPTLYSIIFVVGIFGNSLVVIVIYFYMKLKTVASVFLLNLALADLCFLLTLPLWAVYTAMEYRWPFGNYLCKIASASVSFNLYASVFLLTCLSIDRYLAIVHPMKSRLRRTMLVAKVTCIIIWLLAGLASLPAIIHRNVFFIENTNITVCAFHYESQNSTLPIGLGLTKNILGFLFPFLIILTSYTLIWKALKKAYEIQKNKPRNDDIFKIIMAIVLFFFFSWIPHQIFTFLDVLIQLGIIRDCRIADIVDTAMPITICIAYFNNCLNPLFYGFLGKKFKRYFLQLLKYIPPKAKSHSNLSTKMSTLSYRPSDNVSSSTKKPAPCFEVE

[17] = biological target: Voltage-dependent N-type calcium channel subunit alpha-1B (Homo sapiens) (UniProt Q00975); test: Inhibitory activity at Calcium channel N type at 100 nM
[18] = biological target: T1, Glutamate receptor ionotropic AMPA (Homo sapiens); test: Inhibition of AMPA receptor at 10 uM; type: protein-complex assay

Chain of Alpha-2B adrenergic receptor (P18089 whole entry): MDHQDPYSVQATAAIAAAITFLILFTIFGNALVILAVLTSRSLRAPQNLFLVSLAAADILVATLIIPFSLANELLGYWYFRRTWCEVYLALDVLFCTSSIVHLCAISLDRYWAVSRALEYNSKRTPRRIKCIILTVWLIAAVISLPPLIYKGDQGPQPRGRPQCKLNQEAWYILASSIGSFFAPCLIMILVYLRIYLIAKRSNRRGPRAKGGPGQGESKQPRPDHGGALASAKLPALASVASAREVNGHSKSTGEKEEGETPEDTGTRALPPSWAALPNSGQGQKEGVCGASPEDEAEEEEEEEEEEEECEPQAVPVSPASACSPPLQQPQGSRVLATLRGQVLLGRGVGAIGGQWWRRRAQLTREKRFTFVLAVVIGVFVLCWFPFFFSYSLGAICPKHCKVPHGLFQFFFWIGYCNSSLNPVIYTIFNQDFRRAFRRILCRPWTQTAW
Chain of Substance-P receptor (Homo sapiens) (P25103 whole entry): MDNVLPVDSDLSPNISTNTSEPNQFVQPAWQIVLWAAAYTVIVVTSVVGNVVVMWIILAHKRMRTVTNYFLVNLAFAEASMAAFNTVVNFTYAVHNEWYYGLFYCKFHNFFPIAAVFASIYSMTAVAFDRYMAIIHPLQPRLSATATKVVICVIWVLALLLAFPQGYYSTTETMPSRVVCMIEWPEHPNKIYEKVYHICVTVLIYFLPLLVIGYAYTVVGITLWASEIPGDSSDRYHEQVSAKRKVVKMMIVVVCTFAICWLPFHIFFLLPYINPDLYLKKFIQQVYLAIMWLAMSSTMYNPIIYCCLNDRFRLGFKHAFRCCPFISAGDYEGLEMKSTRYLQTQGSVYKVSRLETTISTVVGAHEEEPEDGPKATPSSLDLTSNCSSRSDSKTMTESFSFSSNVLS
Chain of Alpha-1B adrenergic receptor (P35368 whole entry): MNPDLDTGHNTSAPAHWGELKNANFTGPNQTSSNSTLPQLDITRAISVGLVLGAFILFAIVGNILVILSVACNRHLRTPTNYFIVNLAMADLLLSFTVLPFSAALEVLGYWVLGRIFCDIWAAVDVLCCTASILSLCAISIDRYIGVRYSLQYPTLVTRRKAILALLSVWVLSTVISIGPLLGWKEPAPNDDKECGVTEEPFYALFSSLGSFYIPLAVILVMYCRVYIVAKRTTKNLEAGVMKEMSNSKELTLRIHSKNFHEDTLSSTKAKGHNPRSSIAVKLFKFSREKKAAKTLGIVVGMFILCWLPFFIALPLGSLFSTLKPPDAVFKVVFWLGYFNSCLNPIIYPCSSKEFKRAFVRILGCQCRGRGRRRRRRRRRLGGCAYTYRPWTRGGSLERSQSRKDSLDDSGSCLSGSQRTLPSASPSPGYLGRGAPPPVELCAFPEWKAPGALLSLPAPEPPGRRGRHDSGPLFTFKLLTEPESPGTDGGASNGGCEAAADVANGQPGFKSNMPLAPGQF
Chain of Voltage-dependent N-type calcium channel subunit alpha-1B (Homo sapiens) (Q00975 whole entry, looked up): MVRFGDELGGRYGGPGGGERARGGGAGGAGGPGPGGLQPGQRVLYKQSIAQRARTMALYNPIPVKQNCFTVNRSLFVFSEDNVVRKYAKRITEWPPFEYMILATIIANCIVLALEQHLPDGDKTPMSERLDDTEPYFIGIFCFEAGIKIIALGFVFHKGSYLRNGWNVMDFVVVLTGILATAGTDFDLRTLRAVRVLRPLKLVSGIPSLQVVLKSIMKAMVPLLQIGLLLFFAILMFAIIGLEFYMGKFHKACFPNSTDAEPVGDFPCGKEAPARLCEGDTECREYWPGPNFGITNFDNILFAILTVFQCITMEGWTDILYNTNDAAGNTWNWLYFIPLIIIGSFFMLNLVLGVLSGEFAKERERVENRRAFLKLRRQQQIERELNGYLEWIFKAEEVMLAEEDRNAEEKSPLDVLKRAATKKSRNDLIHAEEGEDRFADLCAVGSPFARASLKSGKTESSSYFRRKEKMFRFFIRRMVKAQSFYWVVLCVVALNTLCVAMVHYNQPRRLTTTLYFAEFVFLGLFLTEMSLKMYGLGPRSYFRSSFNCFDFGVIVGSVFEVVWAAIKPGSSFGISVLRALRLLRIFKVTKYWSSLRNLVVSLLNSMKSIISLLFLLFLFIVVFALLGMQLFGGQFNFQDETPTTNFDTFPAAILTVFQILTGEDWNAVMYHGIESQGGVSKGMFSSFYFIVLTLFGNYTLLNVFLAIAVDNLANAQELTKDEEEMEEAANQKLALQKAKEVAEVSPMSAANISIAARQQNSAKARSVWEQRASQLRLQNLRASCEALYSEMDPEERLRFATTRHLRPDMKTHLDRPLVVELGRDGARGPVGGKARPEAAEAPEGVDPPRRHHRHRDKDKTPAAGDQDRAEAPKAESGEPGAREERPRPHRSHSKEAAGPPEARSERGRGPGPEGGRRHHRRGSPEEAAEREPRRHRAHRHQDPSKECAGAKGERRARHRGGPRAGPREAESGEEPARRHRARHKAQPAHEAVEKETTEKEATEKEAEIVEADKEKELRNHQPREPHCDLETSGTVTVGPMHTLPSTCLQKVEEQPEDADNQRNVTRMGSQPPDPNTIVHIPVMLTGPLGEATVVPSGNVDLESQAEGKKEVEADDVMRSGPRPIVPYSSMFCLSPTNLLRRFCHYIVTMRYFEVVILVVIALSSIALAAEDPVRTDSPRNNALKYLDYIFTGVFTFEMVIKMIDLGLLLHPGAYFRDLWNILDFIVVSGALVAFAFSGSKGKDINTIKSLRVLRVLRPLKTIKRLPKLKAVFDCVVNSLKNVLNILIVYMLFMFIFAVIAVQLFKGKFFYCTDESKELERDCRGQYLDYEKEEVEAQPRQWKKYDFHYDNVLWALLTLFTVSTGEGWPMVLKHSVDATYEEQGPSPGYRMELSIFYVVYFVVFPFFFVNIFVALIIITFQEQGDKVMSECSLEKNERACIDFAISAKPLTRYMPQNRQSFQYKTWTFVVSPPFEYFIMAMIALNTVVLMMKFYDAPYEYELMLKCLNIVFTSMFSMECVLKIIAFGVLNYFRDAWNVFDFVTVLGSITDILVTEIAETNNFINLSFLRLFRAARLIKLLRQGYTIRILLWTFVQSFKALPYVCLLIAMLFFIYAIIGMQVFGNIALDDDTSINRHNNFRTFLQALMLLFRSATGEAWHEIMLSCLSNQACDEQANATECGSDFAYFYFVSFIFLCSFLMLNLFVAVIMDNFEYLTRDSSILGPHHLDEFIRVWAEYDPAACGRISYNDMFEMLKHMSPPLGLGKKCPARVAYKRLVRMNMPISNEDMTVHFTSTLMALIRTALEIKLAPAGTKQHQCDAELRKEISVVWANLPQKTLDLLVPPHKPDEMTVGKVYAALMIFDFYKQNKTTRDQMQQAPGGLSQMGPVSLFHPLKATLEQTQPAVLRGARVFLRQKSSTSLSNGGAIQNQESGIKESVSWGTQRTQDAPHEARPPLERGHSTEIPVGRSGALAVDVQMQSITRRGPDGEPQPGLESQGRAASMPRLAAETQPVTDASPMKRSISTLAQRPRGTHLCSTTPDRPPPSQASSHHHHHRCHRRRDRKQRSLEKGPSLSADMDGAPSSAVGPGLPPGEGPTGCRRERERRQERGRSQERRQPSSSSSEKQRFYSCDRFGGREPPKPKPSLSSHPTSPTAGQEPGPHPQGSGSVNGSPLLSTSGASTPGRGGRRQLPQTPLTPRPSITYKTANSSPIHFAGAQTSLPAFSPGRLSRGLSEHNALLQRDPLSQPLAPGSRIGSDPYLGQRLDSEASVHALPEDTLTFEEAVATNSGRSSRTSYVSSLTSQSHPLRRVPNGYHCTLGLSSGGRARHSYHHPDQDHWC
Chain of 5-hydroxytryptamine receptor 5A (P47898 whole entry): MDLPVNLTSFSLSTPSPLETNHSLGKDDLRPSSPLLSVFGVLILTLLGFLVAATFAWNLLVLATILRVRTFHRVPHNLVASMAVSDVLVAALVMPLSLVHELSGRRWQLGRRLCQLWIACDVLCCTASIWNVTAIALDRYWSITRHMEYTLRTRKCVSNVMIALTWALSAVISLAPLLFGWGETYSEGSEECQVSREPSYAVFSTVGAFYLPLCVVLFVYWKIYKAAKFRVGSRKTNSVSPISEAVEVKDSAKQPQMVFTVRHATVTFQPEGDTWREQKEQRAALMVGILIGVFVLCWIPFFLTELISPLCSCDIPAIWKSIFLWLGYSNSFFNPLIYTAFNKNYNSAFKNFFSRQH

C[C@H](N)Cn1ncc2ccc(O)cc21
inhibition [1]: 6.69% | Ki [2]: > 10 µM | EC50 [3]: 3.05 µM | inhibition [4]: 9.31% | inhibition [5]: 13.3% | inhibition [6]: -5.75% | inhibition [7]: 18.1% | inhibition at 0.001 µM [8]: 2.17% | Ki [9]: 2.27 µM | Ki [10]: 4.7 µM | inhibition [11]: 22.8% | inhibition at 10 µM [12]: -18.4% | inhibition [13]: 12.2% | inhibition [14]: 33% | Ki [15]: > 30 µM | inhibition [16]: 6.55% | inhibition [17]: 2.01% | inhibition [18]: 7.62%

Reference: ChEMBL document CHEMBL1148572, “1-((S)-2-aminopropyl)-1H-indazol-6-ol: a potent peripherally acting 5-HT2 receptor agonist with ocular hypotensive activity” (J Med Chem, 2006)
